Experimental data published in patent US20220323402A1, “TREATMENT, AMELIORATION OR PREVENTION OF A VIRAL INFECTION” (priority 2019, published 2022).

Experiments:
[1] = test system: ZIKV (Puerto Rico strain, PRVABC59); test: Flow cytometry quantification of HepG2 cells positive for Flavivirus antigen after ZIKV infection; format: cell-based, Zika virus; details: HepG2, ZIKV PRVABC59 moi=1, 48 h, pre-treated; FIG. 7C
Method: FIGS. 7A-7K: AHR signaling boosts ZIKV replication in vitro. Flow cytometry quantification of HepG2 cells positive for Flavivirus antigen. HepG2 cells were pre-treated with different concentrations of I3S, CH223191 or DMSO (vehicle) and infected with ZIKV (moi=1) for 48 h. Plots shown are representative of one experiment. Bar graphs (FIG. 7C) represent the mean+s.e.m. of Flavivirus antigen positive cells from at least three independent experiments. P values were determined by a one-way ANOVA followed by Tukey's post-hoc test.
(§1) Stock solutions of I3S and CH223191 were prepared in DMSO, aliquoted and stored according to manufacturer's instructions. For CH223191, cells were pre-treated for 90 minutes and then used for further studies. For I3S, cells were pre-treated overnight.
Cells were fixed and permeabilized using Cytofix/Cytoperm (BD Biosciences). Secondary antibody for flow cytometry was phycoerythrin (PE) goat anti-mouse IgG (BD Biosciences) at a concentration of 1:200. Cells were analyzed on a Guava easyCyte flow cytometer and data was processed using FlowJo software.

ZIKV = test: Infectious virus particles in supernatants of ZIKV-infected HepG2 cells, standard plaque assay in Vero cells; format: cell-based, Zika virus
Method: (§2) FIG. 8: Quantification of infectious virus particles in the supernatants of HepG2 cells pre-treated with CH2213191 or vehicle-treated using a standard plaque assay in Vero cells. Data represent the mean+s.e.m. from three independent experiments. P values were determined by a one-way ANOVA followed by Tukey's post-hoc test.
as §2, with “14:” for “8:”, “48 h p.i. after infection” for “pre-treated”, “ZIKV INEVH116141 (Argentina)” for “CH2213191 or vehicle-treated”
as §2, with “15:” for “8:”, “48 h p.i. after infection” for “pre-treated”, “ZIKV BeH815744 (Brazil)” for “CH2213191 or vehicle-treated”
as §2, with “16:” for “8:”, “48 h p.i. after infection” for “pre-treated”, “ZIKV MR 766 (Uganda)” for “CH2213191 or vehicle-treated”
as §1
C6/36 mosquito cells were infected at a multiplicity of infection of 1 with ZIKV Puerto Rico strain (PRVABC59, ATCC isolate gift from MIT laboratory); viral isolate from Argentina (INEVH116141) provided by Instituto Nacional de Enfermedades Virales Humanas, Pergamino, Argentina, ZIKV Brazil (BeH815744) gene bank accession number KU365780.1 gently provided by Prof. José Luiz Proença Modena and Daniele Durigon and the reference ZIKV strain from Uganda (MR766), respectively, for 1 h at 37° C. in serum-free DMEM. Quantification of viral titers was performed by a standard plaque assay in Vero cells.

Cell cultures = test: Cell viability by MTT assay; format: cell-based; details: at the concentrations tested; FIGS. 9A-9B
Method: FIGS. 9A and 9B: Toxicity of I3S and CH223191. Cell viability after treatment for 24 h with different concentrations of I3S (FIG. 9A) and CH223191 (FIG. 9B) evaluated by MTT assay.
Cell cultures grown in 96-well plates were exposed for 48 h to serial two-fold compound dilutions, three wells for each concentration and viability was measured with 3-(4,5-dimethylthiazol-2-yl)-2,5-diphenyl tetrazolium bromide (MTT, Sigma-Aldrich).

AHR = AHR modulation in NPCs, qPCR of AHR, CYP1A1, IDO1 and TDO2; format: cell-based, human; details: at the concentrations tested; NPCs 24 h; FIGS. 10A-10D
Method: FIGS. 10A-10D: AHR modulation in NPCs. NPCs were treated with I3S or a combination of I3S and CH223191. 24 h after treatment, NPCs were harvested for RNA extraction followed by qPCR analysis of AHR (FIG. 10A), CYP1A1 (FIG. 10B), IDO1 (FIG. 100) and TDO2 (FIG. 10D). Data represent the mean+s.e.m. from three independent experiments. P values were determined by Student's t-test.
RNA was extracted using the RNAeasy kit (Qiagen). cDNA was synthesized using the High-Capacity cDNA Reverse Transcription kit (Applied Biosystems) and qPCR was performed using TaqMan Fast Advanced Master Mix (Applied Biosystems). Gene expression was normalized to GAPDH. Primers and probes (Applied Biosystems) were: GAPDH Hs02786624_g1, IFNB1 Hs01077958_s1, AHR Hs00169233_m1, PML Hs00971694_m1, CYP1A1 Hs01054796_g1, IFITM1 Hs00705137_s1, CYP1B1 Hs02382916_s1, CXCL10 Hs00171042_m1, IDO1 Hs00984148_m1, IDO2 Hs01589373_m1, IFITM Hs00705137_s1, TDO Hs00194611_m1. Primers and probes for the specific detection of Zika virus RNA were utilized as previously described^81, 82. For viral load determination in vivo, brains and spleens from pups were macerated on trizol (Invitrogen) for RNA extraction. RNA pellets were resuspended in RNase-free water and quantified by spectrophotometry (NanoDrop—Thermo Scientific) and stored at −80° C. […] Quantification was compared with threshold cycle (Ct) value with a ZIKV plasmid standard curve.

DENV-2 = test: DENV viral RNA (qPCR) and viral protein (immunofluorescence) in A549 cells; format: cell-based, dengue virus; details: FIGS. 64A-64B and 65A-65C
Description: FIGS. 64A and 64B: A549 cells positive for Flavivirus antigen determined by immunofluorescence. Cells infected with DENV-2 from FIG. 63C were fixed, stained against Flavivirus envelope protein and visualized under a fluorescence microscope (FIG. 64A). Images of random fields of view were acquired and the number of cells positive for Flavivirus antigen was counted using FIJI (FIG. 64B).
FIGS. 65A-65C: RNA expression of DENV-2 (FIG. 65A), AHR (FIG. 65B) and CYP1A1 (FIG. 65C) determined by qPCR. A549 cells were infected with DENV-2 (moi=0.1) and 48 h p.i. they were harvested for qPCR analysis.

## Cc1ccccc1/N=N/c1ccc(NC(=O)c2ccnn2C)c(C)c1 [CH223191, 2-Methyl-2H-pyrazole-3-carboxylic Acid (2-methyl-4-o-tolylazo-phenyl)-amide]
[1]
  reduction of ZIKV replication, HepG2 cells expressing viral antigen: more than 50%
ZIKV; HepG2, 48 h p.i., FIG. 14
  replication of ZIKV isolate from Argentina (INEVH116141): suppressed
ZIKV; HepG2, 48 h p.i., FIG. 15
  replication of ZIKV isolate from Brazil (BeH815744): suppressed
ZIKV; HepG2, 48 h p.i., FIG. 16
  replication of reference ZIKV strain from Uganda (MR 766): suppressed
ZIKV; HepG2, ZIKV PRVABC59, FIG. 8
  reduction of ZIKV replication, infective virus particles released in HepG2 cell culture supernatants: more than 50%
Cell cultures
  cytotoxic effects: no cytotoxic effects were detected
AHR
  AHR inhibition / activation: significant AHR inhibition
DENV-2
  DENV viral RNA and viral protein expression levels: inhibition
